According to US20130259884A1, “PEPTIDES” ([…] SL, priority 2010, published 2013):
Where a SMILES comes first, the peptide text is derived from it.

Test: Water solubility of peptides when preparing stock solutions
Type: physicochemical
Details: stock solution in sterile distilled water or 100% DMSO; read-out: solubility of peptide (water soluble or water insoluble, dissolved in DMSO)
Protocol: For challenge, peptides were administered as follows: • Individual peptides (soluble). Individual water soluble peptides were dissolved as 10, 5 or 2.5 mg/ml stock solutions in sterile distilled water. Before use, each peptide was diluted in water to 2 mg/ml and 10 μl of this 2 mg/ml mix was added to 990 μl of media. Then 100 μl of this peptide/media mix was added to 100 μl of media containing 350,000 PBMC in an ELISPOT anti-IL-4 coated cell culture plate well for a final peptide concentration of 10 μg/ml. Identically diluted media only was added to the cells and used for the no peptide media control wells (media only). • Individual peptides (DMSO). Individual water insoluble peptides were dissolved in 100% DMSO to a stock concentration of 50 mg/ml. Before use each peptide was diluted in water to 2 mg/ml and then 10 μl of the 2 mg/ml mix was added to 990 μl of cell-culture media. Then 100 μl of this peptide/media mix was added to 100 μl of media containing 350,000 PBMC in an ELISPOT anti-IL-4 coated cell culture plate well for a final peptide concentration of 10 μg/ml. Identically diluted media only was added to the cells and used for the no peptide media control wells (media only). • A combination preparation containing Alt a 1 soluble peptides (33.2, 34.3, 35.4, 35.5, 37.3.1, 37.4.1, L6-5.01, L10-1.01, L10-2.01, L10-3), called Alt a 1 Sol. Each peptide was diluted from water stock to 2 mg/ml in sterile distilled water. Then 10 μl of each peptide required for the combined preparation was mixed and brought up to 1 ml in media. Then 100 μl of this peptide/media mix was added to 100 μl of media containing 350,000 PBMC in an ELISPOT anti-IL-4 coated cell culture plate well for a final concentration of each peptide of 10 μg/ml. Identically diluted media only was used for the no peptide control wells (media only). • A combination preparation containing Alt a 1 DMSO peptides (32.2.1, 38.2.1, 35.2, 35.3, L6-2, L6-3, L6-4, 38.3, 37.2), called Alt a 1 DMSO. Each peptide was diluted from DMSO stock to 2 mg/ml in sterile distilled water. Then 10 μl of each peptide required for the combined preparation was mixed and brought up to 1 ml in media. Then 100 μl of this peptide/media mix is added to 100 μl of media containing 350,000 PBMC in an ELISPOT anti-IL-4 coated cell culture plate well for a final concentration of each peptide of 10 μg/ml. Identically diluted media only was used for the no peptide control wells (media only). • A combination preparation containing non-Alt a 1 soluble peptides (40.2, 41.2, 43.2, 44.2, 46.2, 47.2.1, 56.2, 57.2.1, 60.2, 62.2.1, 67.2, 71.3), called Alt a Other Sol. Each peptide was diluted from water stock to 2 mg/ml in sterile distilled water. Then 10 μl of each peptide required for the combined preparation was mixed and brought up to 1 ml in media, Then 100 μl of this peptide/media mix was added to 100 μl of media containing 350,000 PBMC in an ELISPOT anti-IL-4 coated cell culture plate well for a final concentration of each peptide at 10 μg/ml. Identically diluted media only was used for the no peptide control wells (media only). • A combination preparation containing non-Alt a 1 DMSO peptides (39.2, 42.2, 45.2, 48.2.1, 50.2, 51.2.1, 61.2.1, 66.3.1, 68.2.1, 70.2, 71.2, 72.2), called Alt a Other DMSO. Each peptide was diluted from DMSO stock to 2 mg/ml in sterile distilled water. Then 10 ul of each peptide required for the combined preparation was mixed and brought up to 1 ml in media, Then 100 μl of this peptide/media mix was added to 100 μl of media containing 350,000 PBMC in an ELISPOT anti-IL-4 coated cell culture plate well for a final concentration of each peptide at 10 μg/ml. Identically diluted media only was used for the no peptide control wells (media only).
In the case of `CC[C@H](C)[C@H](NC(=O)[C@@H](NC(=O)[C@@H](NC(=O)[C@H](Cc1ccccc1)NC(=O)[C@H](CCC(N)=O)NC(=O)[C@@H](N)CC(C)C)[C@@H](C)O)[C@@H](C)O)C(=O)N[C@@H](C)C(=O)N[C@@H](CO)C(=O)N[C@@H](CC(C)C)C(=O)N[C@@H](Cc1ccccc1)C(=O)N[C@@H](C)C(=O)N[C@@H](C)C(=O)N[C@@H](C)C(=O)NCC(=O)N[C@@H](CC(C)C)C(=O)O` [Peptide 32.2.1, LQFTTIASLFAAAGL] (H-LQFTTIASLFAAAGL-OH), the solubility is reported as less than 2500 µg/mL.
In the case of `CC(C)C[C@H](NC(=O)CNC(=O)[C@H](C)NC(=O)[C@H](C)N)C(=O)N[C@@H](C)C(=O)N[C@@H](C)C(=O)N[C@@H](C)C(=O)N[C@@H](C)C(=O)N1CCC[C@H]1C(=O)N[C@@H](CC(C)C)C(=O)N[C@@H](CCC(=O)O)C(=O)N[C@@H](CO)C(=O)N[C@@H](CCCNC(=N)N)C(=O)N[C@@H](CCC(N)=O)C(=O)N[C@@H](CC(=O)O)C(=O)O` [Peptide 33.2, AAGLAAAAPLESRQD] (H-AAGLAAAAPLESRQD-OH), the solubility is reported as greater than 2500 µg/mL.
Molecule `CC[C@H](C)[C@H](NC(=O)[C@H](CCCCN)NC(=O)[C@H](Cc1c[nH]c2ccccc12)NC(=O)[C@@H](NC(=O)[C@H](Cc1ccc(O)cc1)NC(=O)[C@@H](N)CC(=O)O)C(C)C)C(=O)N[C@@H](CO)C(=O)N[C@@H](CCC(=O)O)C(=O)N[C@@H](Cc1ccccc1)C(=O)N[C@@H](Cc1ccc(O)cc1)C(=O)NCC(=O)N[C@@H](CCCNC(=N)N)C(=O)N[C@@H](CCCCN)C(=O)N1CCC[C@H]1C(=O)N[C@@H](CCC(=O)O)C(=O)O` [Peptide 34.3, DYVWKISEFYGRKPE] (H-DYVWKISEFYGRKPE-OH) has a solubility greater than 2500 µg/mL.
`CC[C@H](C)[C@H](NC(=O)[C@H](CC(N)=O)NC(=O)[C@H](Cc1ccccc1)NC(=O)CNC(=O)[C@H](CC(C)C)NC(=O)[C@H](CO)NC(=O)[C@H](CC(N)=O)NC(=O)[C@H](Cc1ccc(O)cc1)NC(=O)[C@H](Cc1ccc(O)cc1)NC(=O)[C@@H](NC(=O)CNC(=O)[C@@H](N)CCC(=O)O)[C@@H](C)O)C(=O)N[C@@H](CCCCN)C(=O)N[C@@H](C)C(=O)N[C@H](C(=O)O)[C@@H](C)O` [Peptide 35.2, EGTYYNSLGFNIKAT] (H-EGTYYNSLGFNIKAT-OH) showed a solubility of less than 2500 µg/mL.
Work on `CC[C@H](C)[C@H](NC(=O)[C@H](CC(N)=O)NC(=O)[C@H](Cc1ccccc1)NC(=O)CNC(=O)[C@H](CC(C)C)NC(=O)[C@H](CO)NC(=O)[C@H](CC(N)=O)NC(=O)[C@@H](N)Cc1ccc(O)cc1)C(=O)N[C@@H](CCCCN)C(=O)N[C@@H](C)C(=O)N[C@H](C(=O)N[C@@H](CC(N)=O)C(=O)NCC(=O)NCC(=O)N[C@H](C(=O)O)[C@@H](C)O)[C@@H](C)O` [Peptide 35.3, YNSLGFNIKATNGGT] (H-YNSLGFNIKATNGGT-OH) yielded a solubility of less than 2500 µg/mL.
With `CC[C@H](C)[C@H](NC(=O)[C@H](CC(N)=O)NC(=O)[C@H](Cc1ccccc1)NC(=O)CNC(=O)[C@H](CC(C)C)NC(=O)[C@@H](N)CO)C(=O)N[C@@H](CCCCN)C(=O)N[C@@H](C)C(=O)N[C@H](C(=O)N[C@@H](CC(N)=O)C(=O)NCC(=O)NCC(=O)N[C@H](C(=O)N[C@@H](CC(C)C)C(=O)N[C@@H](CC(=O)O)C(=O)O)[C@@H](C)O)[C@@H](C)O` [Peptide 35.4, SLGFNIKATNGGTLD] (H-SLGFNIKATNGGTLD-OH) the solubility was greater than 2500 µg/mL.
For `CC[C@H](C)[C@H](NC(=O)[C@H](CC(N)=O)NC(=O)[C@H](Cc1ccccc1)NC(=O)CN)C(=O)N[C@@H](CCCCN)C(=O)N[C@@H](C)C(=O)N[C@H](C(=O)N[C@@H](CC(N)=O)C(=O)NCC(=O)NCC(=O)N[C@H](C(=O)N[C@@H](CC(C)C)C(=O)N[C@@H](CC(=O)O)C(=O)N[C@@H](Cc1ccccc1)C(=O)N[C@H](C(=O)O)[C@@H](C)O)[C@@H](C)O)[C@@H](C)O` [Peptide 35.5, GFNIKATNGGTLDFT] (H-GFNIKATNGGTLDFT-OH), the solubility was greater than 2500 µg/mL.
In the case of `CC[C@H](C)[C@H](NC(=O)[C@H](CC(=O)O)NC(=O)[C@H](CC(=O)O)NC(=O)[C@@H](N)CO)C(=O)N[C@H](C(=O)N[C@@H](Cc1ccc(O)cc1)C(=O)N[C@H](C(=O)N[C@@H](C)C(=O)N[C@H](C(=O)N[C@@H](C)C(=O)N[C@H](C(=O)N[C@@H](CC(C)C)C(=O)N1CCC[C@H]1C(=O)N[C@@H](CC(N)=O)C(=O)N[C@@H](Cc1ccc(O)cc1)C(=O)O)[C@@H](C)O)[C@@H](C)O)C(C)C)[C@@H](C)O` [Peptide 37.2, SDDITYVATATLPNY] (H-SDDITYVATATLPNY-OH), the solubility is reported as less than 2500 µg/mL.
`CC[C@H](C)[C@H](NC(=O)[C@@H](N)CC(=O)O)C(=O)N[C@H](C(=O)N[C@@H](Cc1ccc(O)cc1)C(=O)N[C@H](C(=O)N[C@@H](C)C(=O)N[C@H](C(=O)N[C@@H](C)C(=O)N[C@H](C(=O)N[C@@H](CC(C)C)C(=O)N1CCC[C@H]1C(=O)N[C@@H](CC(N)=O)C(=O)N[C@@H](Cc1ccc(O)cc1)C(=O)N[C@H](C(=O)N[C@@H](CCCNC(=N)N)C(=O)O)C(C)C)[C@@H](C)O)[C@@H](C)O)C(C)C)[C@@H](C)O` [Peptide 37.3.1, DITYVATATLPNYVR] (H-DITYVATATLPNYVR-OH) gave a solubility greater than 2500 µg/mL.
With `CC(C)C[C@H](NC(=O)[C@@H](NC(=O)[C@H](C)NC(=O)[C@@H](N)[C@@H](C)O)[C@@H](C)O)C(=O)N1CCC[C@H]1C(=O)N[C@@H](CC(N)=O)C(=O)N[C@@H](Cc1ccc(O)cc1)C(=O)N[C@H](C(=O)N[C@@H](CCCNC(=N)N)C(=O)N[C@@H](C)C(=O)NCC(=O)NCC(=O)N[C@@H](CC(N)=O)C(=O)NCC(=O)N1CCC[C@H]1C(=O)O)C(C)C` [Peptide 37.4.1, TATLPNYVRAGGNGP] (H-TATLPNYVRAGGNGP-OH) the solubility was greater than 2500 µg/mL.
For `CC[C@H](C)[C@H](NC(=O)[C@H](Cc1ccc(O)cc1)NC(=O)[C@H](C)NC(=O)[C@H](CC(=O)O)NC(=O)[C@H](C)NC(=O)[C@@H](NC(=O)CNC(=O)[C@H](CCC(N)=O)NC(=O)[C@@H](NC(=O)[C@@H](NC(=O)[C@H](Cc1ccccc1)NC(=O)[C@H](CC(=O)O)NC(=O)[C@H](CCCCN)NC(=O)[C@@H]1CCCN1)C(C)C)C(C)C)C(C)C)C(=O)N[C@H](C(=O)O)[C@@H](C)O` [Peptide 38.2.1, PKDFVVQGVADAYIT] (H-PKDFVVQGVADAYIT-OH), the solubility was less than 2500 µg/mL.
Work on `CC[C@H](C)[C@H](NC(=O)[C@H](Cc1ccc(O)cc1)NC(=O)[C@H](C)NC(=O)[C@H](CC(=O)O)NC(=O)[C@H](C)NC(=O)[C@@H](N)C(C)C)C(=O)N[C@H](C(=O)N[C@@H](CC(C)C)C(=O)N[C@H](C(=O)N[C@H](C(=O)N[C@@H](CC(C)C)C(=O)N1CCC[C@H]1C(=O)N[C@@H](CCCCN)C(=O)N[C@@H](CO)C(=O)N[C@@H](CO)C(=O)O)[C@@H](C)O)C(C)C)[C@@H](C)O` [Peptide 38.3, VADAYITLVTLPKSS] yielded a solubility of less than 2500 µg/mL.
Molecule `CC(C)C[C@H](NC(=O)[C@H](CCCNC(=N)N)NC(=O)[C@H](CC(N)=O)NC(=O)[C@@H](N)CC(=O)O)C(=O)N[C@H](C(=O)N[C@@H](CC(N)=O)C(=O)N[C@@H](Cc1c[nH]cn1)C(=O)N[C@@H](Cc1ccccc1)C(=O)N[C@H](C(=O)N[C@@H](CC(N)=O)C(=O)N[C@@H](CCC(=O)O)C(=O)N[C@@H](Cc1ccccc1)C(=O)N[C@@H](CCCCN)C(=O)N[C@@H](CCCNC(=N)N)C(=O)N[C@@H](CCCCN)C(=O)O)[C@@H](C)O)C(C)C` [Peptide 40.2, DNRLVNHFTNEFKRK] (H-DNRLVNHFTNEFKRK-OH; N-terminus and C-terminus assumed) has a solubility greater than 2500 µg/mL.
